Activity calls are given as the source filed them. The rule behind the calls is not given here.
Tests used:
[1] = biological target: Wee1-like protein kinase 2 (Homo sapiens) (UniProt P0C1S8); experiment: Inhibition of DNA-tagged human WEE2 assessed as percent of control at 50000 nM by qPCR analysis relative to control; set-up: scale not given: the % may be the effect or the level left
[2] = biological target: ALK tyrosine kinase receptor (Homo sapiens) (UniProt Q9UM73); experiment: Inhibition of DNA-tagged human ALK assessed as percent of control at 50000 nM by qPCR analysis relative to control; set-up: scale not given: the % may be the effect or the level left
[3] = biological target: Protein kinase C eta type (Homo sapiens) (UniProt P24723); experiment: Inhibition of DNA-tagged human PRKCH assessed as percent of control at 50000 nM by qPCR analysis relative to control; set-up: scale not given: the % may be the effect or the level left
[4] = biological target: Calcium/calmodulin-dependent protein kinase type 1D (Homo sapiens) (UniProt Q8IU85); experiment: Inhibition of DNA-tagged human CAMK1D assessed as percent of control at 50000 nM by qPCR analysis relative to control; set-up: scale not given: the % may be the effect or the level left
[5] = biological target: Dual specificity tyrosine-phosphorylation-regulated kinase 1A (Homo sapiens) (UniProt Q13627); experiment: Inhibition of DNA-tagged human DYRK1A assessed as percent of control at 50000 nM by qPCR analysis relative to control; set-up: scale not given: the % may be the effect or the level left
[6] = biological target: Serine/threonine-protein kinase NLK (Homo sapiens) (UniProt Q9UBE8); experiment: Inhibition of DNA-tagged human NLK assessed as percent of control at 50000 nM by qPCR analysis relative to control; set-up: scale not given: the % may be the effect or the level left
[7] = biological target: Serine/threonine-protein kinase PAK 5 (Homo sapiens) (UniProt Q9P286); experiment: Inhibition of DNA-tagged human PAK7 assessed as percent of control at 50000 nM by qPCR analysis relative to control; set-up: scale not given: the % may be the effect or the level left
[8] = biological target: Homeodomain-interacting protein kinase 2 (Homo sapiens) (UniProt Q9H2X6); experiment: Inhibition of DNA-tagged human HIPK2 assessed as percent of control at 50000 nM by qPCR analysis relative to control; set-up: scale not given: the % may be the effect or the level left
[9] = biological target: Fibroblast growth factor receptor 2 (Homo sapiens) (UniProt P21802); experiment: Inhibition of DNA-tagged human FGFR2 assessed as percent of control at 50000 nM by qPCR analysis relative to control; set-up: scale not given: the % may be the effect or the level left
[10] = biological target: Serine/threonine-protein kinase 17A (Homo sapiens) (UniProt Q9UEE5); experiment: Inhibition of DNA-tagged human DRAK1 assessed as percent of control at 50000 nM by qPCR analysis relative to control; set-up: scale not given: the % may be the effect or the level left
[11] = test system: Mast/stem cell growth factor receptor Kit (Homo sapiens), P10721 [A829P]; experiment: Inhibition of DNA-tagged human KIT A829P mutant assessed as percent of control at 50000 nM by qPCR analysis relative to control; set-up: scale not given: the % may be the effect or the level left
[12] = biological target: Tyrosine-protein kinase Blk (Homo sapiens) (UniProt P51451); experiment: Inhibition of DNA-tagged human BLK assessed as percent of control at 50000 nM by qPCR analysis relative to control; set-up: scale not given: the % may be the effect or the level left
[13] = test system: OCI-AML-3; experiment: Cytotoxicity against human OCI-AML-3 cells at 0.1-100 uM assessed as decrease in cell viability relative to control; assay type: functional, cell-based
[14] = biological target: Receptor tyrosine-protein kinase erbB-2 (Homo sapiens) (UniProt P04626); experiment: Inhibition of DNA-tagged human ERBB2 assessed as percent of control at 50000 nM by qPCR analysis relative to control; set-up: scale not given: the % may be the effect or the level left
[15] = biological target: Homeodomain-interacting protein kinase 4 (Homo sapiens) (UniProt Q8NE63); experiment: Inhibition of DNA-tagged human HIPK4 assessed as percent of control at 50000 nM by qPCR analysis relative to control; set-up: scale not given: the % may be the effect or the level left
[16] = biological target: Cyclin-dependent kinase-like 5 (Homo sapiens) (UniProt O76039); experiment: Inhibition of DNA-tagged human CDKL5 assessed as percent of control at 50000 nM by qPCR analysis relative to control; set-up: scale not given: the % may be the effect or the level left
[17] = biological target: Insulin receptor-related protein (Homo sapiens) (UniProt P14616); experiment: Inhibition of DNA-tagged human INSRR assessed as percent of control at 50000 nM by qPCR analysis relative to control; set-up: scale not given: the % may be the effect or the level left
[18] = biological target: Serine/threonine-protein kinase SIK2 (Homo sapiens) (UniProt Q9H0K1); experiment: Inhibition of DNA-tagged human SIK2 assessed as percent of control at 50000 nM by qPCR analysis relative to control; set-up: scale not given: the % may be the effect or the level left
[19] = biological target: Mitogen-activated protein kinase kinase kinase kinase 3 (Homo sapiens) (UniProt Q8IVH8); experiment: Inhibition of DNA-tagged human MAP4K3 assessed as percent of control at 50000 nM by qPCR analysis relative to control; set-up: scale not given: the % may be the effect or the level left
[20] = biological target: Transient receptor potential cation channel subfamily M member 6 (Homo sapiens) (UniProt Q9BX84); experiment: Inhibition of DNA-tagged human TRPM6 assessed as percent of control at 50000 nM by qPCR analysis relative to control; set-up: scale not given: the % may be the effect or the level left
[21] = biological target: Tyrosine-protein kinase HCK (Homo sapiens) (UniProt P08631); experiment: Inhibition of DNA-tagged human HCK assessed as percent of control at 50000 nM by qPCR analysis relative to control; set-up: scale not given: the % may be the effect or the level left
[22] = biological target: Receptor-type tyrosine-protein kinase FLT3 (Homo sapiens) (UniProt P36888); experiment: Inhibition of DNA-tagged human FLT3 assessed as percent of control at 50000 nM by qPCR analysis relative to control; set-up: scale not given: the % may be the effect or the level left
[23] = test system: KG-1; experiment: Cytotoxicity against human KG-1 cells at 0.1-100 uM assessed as decrease in cell viability relative to control; assay type: functional, cell-based
[24] = test system: Receptor-type tyrosine-protein kinase FLT3 (Homo sapiens), P36888 [R834Q]; experiment: Inhibition of DNA-tagged human FLT3 R834Q mutant assessed as percent of control at 50000 nM by qPCR analysis relative to control; set-up: scale not given: the % may be the effect or the level left
[25] = biological target: NT-3 growth factor receptor (Homo sapiens) (UniProt Q16288); experiment: Inhibition of DNA-tagged human TRKC assessed as percent of control at 50000 nM by qPCR analysis relative to control; set-up: scale not given: the % may be the effect or the level left
[26] = test system: Epidermal growth factor receptor (Homo sapiens), P00533 [L858R,T790M]; experiment: Inhibition of DNA-tagged human EGFR L858R/T790M double mutant assessed as percent of control at 50000 nM by qPCR analysis relative to control; set-up: scale not given: the % may be the effect or the level left
[27] = biological target: Ankyrin repeat and protein kinase domain-containing protein 1 (Homo sapiens) (UniProt Q8NFD2); experiment: Inhibition of DNA-tagged human ANKK1 assessed as percent of control at 50000 nM by qPCR analysis relative to control; set-up: scale not given: the % may be the effect or the level left
[28] = test system: eIF-2-alpha kinase GCN2 (Homo sapiens), Q9P2K8 [S808G]; experiment: Inhibition of DNA-tagged human GCN2 S808G mutant kinase domain 2 assessed as percent of control at 50000 nM by qPCR analysis relative to control; set-up: scale not given: the % may be the effect or the level left
[29] = biological target: RAC-gamma serine/threonine-protein kinase (Homo sapiens) (UniProt Q9Y243); experiment: Inhibition of DNA-tagged human AKT3 assessed as percent of control at 50000 nM by qPCR analysis relative to control; set-up: scale not given: the % may be the effect or the level left
[30] = biological target: Interleukin-1 receptor-associated kinase 3 (Homo sapiens) (UniProt Q9Y616); experiment: Inhibition of DNA-tagged human IRAK3 assessed as percent of control at 50000 nM by qPCR analysis relative to control; set-up: scale not given: the % may be the effect or the level left

Sequence of RAC-gamma serine/threonine-protein kinase (Homo sapiens) (Q9Y243 whole entry): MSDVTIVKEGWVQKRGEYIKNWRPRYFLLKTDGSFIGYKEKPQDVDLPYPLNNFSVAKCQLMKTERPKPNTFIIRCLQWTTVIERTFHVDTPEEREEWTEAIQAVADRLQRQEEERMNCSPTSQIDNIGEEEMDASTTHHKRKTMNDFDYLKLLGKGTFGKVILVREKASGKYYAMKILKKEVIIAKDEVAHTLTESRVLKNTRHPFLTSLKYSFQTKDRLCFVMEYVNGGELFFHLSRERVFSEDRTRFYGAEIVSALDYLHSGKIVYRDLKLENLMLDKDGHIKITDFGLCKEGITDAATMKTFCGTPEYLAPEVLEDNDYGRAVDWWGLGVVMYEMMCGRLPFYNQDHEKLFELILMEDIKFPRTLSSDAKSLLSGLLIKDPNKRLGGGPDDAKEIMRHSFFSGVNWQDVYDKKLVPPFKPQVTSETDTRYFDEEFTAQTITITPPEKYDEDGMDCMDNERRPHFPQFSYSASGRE
Sequence of Mitogen-activated protein kinase kinase kinase kinase 3 (Homo sapiens) (Q8IVH8 whole entry): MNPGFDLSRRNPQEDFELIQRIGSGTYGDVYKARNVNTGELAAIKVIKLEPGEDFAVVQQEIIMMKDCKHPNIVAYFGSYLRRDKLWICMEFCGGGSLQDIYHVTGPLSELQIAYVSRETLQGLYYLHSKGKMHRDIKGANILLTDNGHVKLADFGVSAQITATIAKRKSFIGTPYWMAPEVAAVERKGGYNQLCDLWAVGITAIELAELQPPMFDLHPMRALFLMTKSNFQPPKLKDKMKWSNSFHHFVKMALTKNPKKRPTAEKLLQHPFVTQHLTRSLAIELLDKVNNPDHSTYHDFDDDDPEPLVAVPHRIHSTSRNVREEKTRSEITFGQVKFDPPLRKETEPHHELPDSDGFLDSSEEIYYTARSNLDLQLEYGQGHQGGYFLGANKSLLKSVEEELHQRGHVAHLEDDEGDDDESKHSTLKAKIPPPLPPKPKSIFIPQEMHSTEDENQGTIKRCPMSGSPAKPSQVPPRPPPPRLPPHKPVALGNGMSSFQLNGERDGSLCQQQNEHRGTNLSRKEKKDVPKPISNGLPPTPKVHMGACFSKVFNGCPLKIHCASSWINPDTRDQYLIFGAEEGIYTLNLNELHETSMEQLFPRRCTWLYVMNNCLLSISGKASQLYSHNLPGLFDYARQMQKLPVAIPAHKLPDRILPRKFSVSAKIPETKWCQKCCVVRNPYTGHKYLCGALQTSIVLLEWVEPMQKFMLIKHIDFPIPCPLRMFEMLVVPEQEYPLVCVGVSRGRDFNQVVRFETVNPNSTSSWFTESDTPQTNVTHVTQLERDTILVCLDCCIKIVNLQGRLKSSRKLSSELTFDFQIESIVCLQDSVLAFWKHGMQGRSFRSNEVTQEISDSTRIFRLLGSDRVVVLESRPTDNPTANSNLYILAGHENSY
Sequence of Transient receptor potential cation channel subfamily M member 6 (Homo sapiens) (Q9BX84 whole entry): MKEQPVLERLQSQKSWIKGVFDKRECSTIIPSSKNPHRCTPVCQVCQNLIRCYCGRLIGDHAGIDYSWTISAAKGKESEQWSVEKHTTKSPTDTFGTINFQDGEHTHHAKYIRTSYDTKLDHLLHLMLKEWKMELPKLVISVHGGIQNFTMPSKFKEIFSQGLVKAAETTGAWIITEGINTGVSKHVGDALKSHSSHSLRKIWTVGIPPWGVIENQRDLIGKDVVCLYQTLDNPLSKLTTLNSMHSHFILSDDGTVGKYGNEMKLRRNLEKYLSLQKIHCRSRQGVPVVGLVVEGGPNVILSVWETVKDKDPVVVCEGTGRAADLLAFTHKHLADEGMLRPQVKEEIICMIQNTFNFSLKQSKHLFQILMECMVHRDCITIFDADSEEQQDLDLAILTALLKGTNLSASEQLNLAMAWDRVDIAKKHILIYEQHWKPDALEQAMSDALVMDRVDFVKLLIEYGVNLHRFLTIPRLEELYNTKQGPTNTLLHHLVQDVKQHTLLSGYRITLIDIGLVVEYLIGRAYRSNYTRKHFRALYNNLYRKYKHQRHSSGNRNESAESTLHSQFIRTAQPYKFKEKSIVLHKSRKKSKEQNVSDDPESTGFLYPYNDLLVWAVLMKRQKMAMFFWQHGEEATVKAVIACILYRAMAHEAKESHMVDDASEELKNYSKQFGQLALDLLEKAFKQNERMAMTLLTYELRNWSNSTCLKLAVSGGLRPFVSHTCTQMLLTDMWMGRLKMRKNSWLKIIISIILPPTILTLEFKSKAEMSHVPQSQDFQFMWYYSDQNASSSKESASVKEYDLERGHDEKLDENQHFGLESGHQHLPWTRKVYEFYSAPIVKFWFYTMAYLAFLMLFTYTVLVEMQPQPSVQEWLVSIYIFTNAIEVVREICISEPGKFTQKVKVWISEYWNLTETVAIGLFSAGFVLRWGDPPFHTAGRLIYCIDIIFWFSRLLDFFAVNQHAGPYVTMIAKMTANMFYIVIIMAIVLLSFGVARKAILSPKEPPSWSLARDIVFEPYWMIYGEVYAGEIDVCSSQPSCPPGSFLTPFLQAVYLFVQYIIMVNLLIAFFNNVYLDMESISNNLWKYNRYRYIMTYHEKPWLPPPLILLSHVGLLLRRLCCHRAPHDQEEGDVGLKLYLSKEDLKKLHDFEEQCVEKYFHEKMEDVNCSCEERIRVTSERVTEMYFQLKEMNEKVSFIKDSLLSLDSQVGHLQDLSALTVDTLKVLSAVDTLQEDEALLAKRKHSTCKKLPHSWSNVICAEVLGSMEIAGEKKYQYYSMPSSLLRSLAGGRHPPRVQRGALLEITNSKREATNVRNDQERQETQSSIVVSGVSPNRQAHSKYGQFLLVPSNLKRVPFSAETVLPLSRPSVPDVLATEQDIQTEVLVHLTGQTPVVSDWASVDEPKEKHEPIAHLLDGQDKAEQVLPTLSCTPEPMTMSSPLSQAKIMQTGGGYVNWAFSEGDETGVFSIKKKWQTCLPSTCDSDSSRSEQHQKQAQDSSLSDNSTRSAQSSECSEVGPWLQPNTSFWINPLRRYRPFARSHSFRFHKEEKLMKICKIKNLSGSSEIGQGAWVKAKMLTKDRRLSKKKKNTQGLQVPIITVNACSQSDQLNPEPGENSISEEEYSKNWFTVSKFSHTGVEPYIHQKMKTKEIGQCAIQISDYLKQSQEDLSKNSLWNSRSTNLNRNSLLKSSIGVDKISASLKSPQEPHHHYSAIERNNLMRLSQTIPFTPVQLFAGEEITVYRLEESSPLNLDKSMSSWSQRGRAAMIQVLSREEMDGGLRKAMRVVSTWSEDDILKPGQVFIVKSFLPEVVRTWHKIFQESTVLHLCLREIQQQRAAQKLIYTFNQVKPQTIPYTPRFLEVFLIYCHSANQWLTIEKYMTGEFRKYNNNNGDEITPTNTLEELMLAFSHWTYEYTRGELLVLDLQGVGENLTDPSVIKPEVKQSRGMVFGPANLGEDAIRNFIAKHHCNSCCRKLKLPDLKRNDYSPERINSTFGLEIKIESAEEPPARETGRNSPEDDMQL
Sequence of Receptor tyrosine-protein kinase erbB-2 (Homo sapiens) (P04626 whole entry): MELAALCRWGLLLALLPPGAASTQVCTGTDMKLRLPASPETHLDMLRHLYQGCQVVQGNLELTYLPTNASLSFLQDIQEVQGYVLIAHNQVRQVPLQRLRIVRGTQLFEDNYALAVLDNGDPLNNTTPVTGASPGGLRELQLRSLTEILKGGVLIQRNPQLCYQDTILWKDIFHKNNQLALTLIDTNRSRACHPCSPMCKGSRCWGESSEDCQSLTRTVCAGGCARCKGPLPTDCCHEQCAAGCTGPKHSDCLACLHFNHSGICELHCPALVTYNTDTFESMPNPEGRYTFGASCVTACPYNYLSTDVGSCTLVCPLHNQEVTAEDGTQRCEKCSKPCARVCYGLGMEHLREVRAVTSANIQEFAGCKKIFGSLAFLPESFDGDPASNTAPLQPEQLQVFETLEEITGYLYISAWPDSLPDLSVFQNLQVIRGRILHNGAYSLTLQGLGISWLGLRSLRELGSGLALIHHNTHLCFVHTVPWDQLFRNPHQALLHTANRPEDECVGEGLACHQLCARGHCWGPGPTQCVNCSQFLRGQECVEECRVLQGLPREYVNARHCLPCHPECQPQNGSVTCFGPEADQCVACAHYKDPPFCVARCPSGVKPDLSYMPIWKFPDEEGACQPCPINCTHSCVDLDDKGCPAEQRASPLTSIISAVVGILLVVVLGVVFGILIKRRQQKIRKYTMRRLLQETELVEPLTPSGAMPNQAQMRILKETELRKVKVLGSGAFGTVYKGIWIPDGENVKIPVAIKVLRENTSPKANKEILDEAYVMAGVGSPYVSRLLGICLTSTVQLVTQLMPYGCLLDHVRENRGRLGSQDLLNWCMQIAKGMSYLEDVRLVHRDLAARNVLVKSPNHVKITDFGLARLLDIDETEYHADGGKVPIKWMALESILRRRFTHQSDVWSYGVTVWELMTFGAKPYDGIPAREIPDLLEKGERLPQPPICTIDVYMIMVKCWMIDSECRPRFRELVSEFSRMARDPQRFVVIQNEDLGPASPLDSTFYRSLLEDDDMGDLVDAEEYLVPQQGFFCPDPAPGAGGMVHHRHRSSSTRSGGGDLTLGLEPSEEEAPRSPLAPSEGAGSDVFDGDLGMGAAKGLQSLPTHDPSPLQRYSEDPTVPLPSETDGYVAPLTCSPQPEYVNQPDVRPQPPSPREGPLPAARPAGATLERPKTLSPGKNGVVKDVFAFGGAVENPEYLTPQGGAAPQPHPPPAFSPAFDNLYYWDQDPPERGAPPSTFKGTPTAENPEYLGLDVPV
Sequence of Calcium/calmodulin-dependent protein kinase type 1D (Homo sapiens) (Q8IU85 whole entry, looked up): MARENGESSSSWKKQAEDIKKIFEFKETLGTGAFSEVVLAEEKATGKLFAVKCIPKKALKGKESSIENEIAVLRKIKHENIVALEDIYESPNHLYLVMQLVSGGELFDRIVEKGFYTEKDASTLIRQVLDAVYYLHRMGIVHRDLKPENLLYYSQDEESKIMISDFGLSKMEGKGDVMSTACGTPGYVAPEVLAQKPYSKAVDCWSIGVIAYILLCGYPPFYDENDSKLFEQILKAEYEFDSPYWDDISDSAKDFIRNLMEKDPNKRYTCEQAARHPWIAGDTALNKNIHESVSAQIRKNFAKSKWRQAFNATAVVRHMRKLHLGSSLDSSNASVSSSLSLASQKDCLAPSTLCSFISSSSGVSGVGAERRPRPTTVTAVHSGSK

For `CN1C(=O)/C(=C2/C(=O)Nc3ccccc32)c2ccccc21`, the Activity [1] was 95%, the Activity [2] was 97% and the Activity [3] was 100%. It also gave an Activity [4] of 100%, an Activity [5] of 100% and an Activity [6] of 100%. The Activity [7] was 98%, the Activity [8] was 66% and the Activity [9] was 89%. The Activity [10] was 100%, the Activity [11] was 63% and the Activity [12] was 100%. The Activity [13] was “Active”, the Activity [14] was 100% and the Activity [15] was 100%. It also gave an Activity [16] of 91%, an Activity [17] of 84% and an Activity [18] of 95%. The Activity [19] was 90%, the Activity [20] was 78% and the Activity [21] was 100%. For the same molecule, the Activity [22] was 79%, the Activity [23] was “Active” and the Activity [24] was 100%. The Activity [25] was 66%, the Activity [26] was 98% and the Activity [27] was 81%. The Activity [28] was 88%, the Activity [29] was 92% and the Activity [30] was 90%.
